The source made the active and inactive calls. The calls are words filed in the database; no cut-off is given here.
Tests used:
[1] = Antiproliferative activity against mouse 3T3 cells assessed as cell viability at 80 uM incubated for 24 hrs by MTT assay relative to control; format: toxicity, cell-based; details: NIH3T3 cells, read-out: Activity
[2] = test system: HepG2; assay: Induction of apoptosis in human HepG2 cells at 80 uM incubated for 24 hrs by annexin V-FITC/propidium iodide staining based flow cytometry analysis relative to control; format: functional
[3] = test system: HepG2; assay: Antiproliferative activity against human HepG2 cells assessed as cell viability at 50 uM incubated for 24 hrs by MTT assay relative to control; format: functional; details: read-out: Activity
[4] = test system: HeLa; assay: Antiproliferative activity against human HeLa cells assessed as cell viability at 80 uM incubated for 24 hrs by MTT assay relative to control; format: functional; details: read-out: Activity
[5] = test system: HeLa; assay: Antiproliferative activity against human HeLa cells assessed as cell viability at 50 uM incubated for 24 hrs by MTT assay relative to control; format: functional; details: read-out: Activity
[6] = Antiproliferative activity against mouse 3T3 cells assessed as cell viability at 50 uM incubated for 24 hrs by MTT assay relative to control; format: toxicity, cell-based; details: NIH3T3 cells, read-out: Activity
[7] = Release of H2S in PBS at 50 uM at pH 7.4; format: physicochemical; details: buffer, pH 7.4, 50 µM
[8] = test system: HeLa; assay: Induction of apoptosis in human HeLa cells at 80 uM incubated for 24 hrs by annexin V-FITC/propidium iodide staining based flow cytometry analysis relative to control; format: functional
[9] = test system: HepG2; assay: Antiproliferative activity against human HepG2 cells assessed as cell viability at 80 uM incubated for 24 hrs by MTT assay relative to control; format: functional; details: read-out: Activity
[10] = test system: HepG2; assay: Cytotoxicity against human HepG2 cells assessed as cell viability at 2 ug/ml incubated for 24 hrs by MTT assay relative to control; format: functional; details: read-out: Activity
[11] = test system: HepG2; assay: Induction of apoptosis in human HepG2 cells assessed as viable cells at 80 uM incubated for 24 hrs by annexin V-FITC/propidium iodide staining based flow cytometry analysis (reference value: 87.1 %); format: functional; details: read-out: Activity
[12] = test system: HepG2; assay: Cytotoxicity against human HepG2 cells assessed as cell viability at 80 uM incubated for 24 hrs in presence of doxorubicin by MTT assay relative to control; format: functional; details: read-out: Activity
[13] = test system: HepG2; assay: Induction of apoptosis in human HepG2 cells assessed as necrotic cells at 80 uM incubated for 24 hrs by annexin V-FITC/propidium iodide staining based flow cytometry analysis (reference value: 1.63 %); format: functional
[14] = test system: HepG2; assay: Cytotoxicity against human HepG2 cells assessed as cell viability at 80 uM incubated for 24 hrs by MTT assay relative to control; format: functional; details: read-out: Activity
[15] = test system: HepG2; assay: Induction of apoptosis in human HepG2 cells assessed as early apoptotic cells at 80 uM incubated for 24 hrs by annexin V-FITC/propidium iodide staining based flow cytometry analysis (reference value: 1.03 %); format: functional
[16] = test system: HeLa; assay: Induction of apoptosis in human HeLa cells assessed as viable cells at 80 uM incubated for 24 hrs by annexin V-FITC/propidium iodide staining based flow cytometry analysis (reference value: 91.7 %); format: functional; details: read-out: Activity
[17] = test system: HepG2; assay: Release of H2S in human HepG2 cells assessed as fold increase in fluorescence intensity at 50 uM incubated for 7 hrs in presence of fluorescent probe WPS-1 measured after 30 mins by confocal imaging analysis; format: ADME, cell-based; details: hepg2, 7.5 h
[18] = test system: HepG2; assay: Induction of apoptosis in human HepG2 cells assessed as late apoptotic cells at 80 uM incubated for 24 hrs by annexin V-FITC/propidium iodide staining based flow cytometry analysis (reference value: 10.1 %); format: functional
[19] = test system: HepG2; assay: Cytotoxicity against human HepG2 cells assessed as cell viability at 100 uM incubated for 24 hrs in presence of doxorubicin by MTT assay relative to control; format: functional; details: read-out: Activity
[20] = test system: HeLa; assay: Induction of apoptosis in human HeLa cells assessed as late apoptotic cells at 80 uM incubated for 24 hrs by annexin V-FITC/propidium iodide staining based flow cytometry analysis (reference value: 3.95 %); format: functional
[21] = test system: HeLa; assay: Induction of apoptosis in human HeLa cells assessed as necrotic cells at 80 uM incubated for 24 hrs by annexin V-FITC/propidium iodide staining based flow cytometry analysis (reference value: 0.71 %); format: functional
[22] = test system: HeLa; assay: Induction of apoptosis in human HeLa cells assessed as early apoptotic cells at 80 uM incubated for 24 hrs by annexin V-FITC/propidium iodide staining based flow cytometry analysis (reference value: 3.59 %); format: functional
[23] = test system: HepG2; assay: Cytotoxicity against human HepG2 cells assessed as cell viability at 100 uM incubated for 24 hrs by MTT assay relative to control; format: functional; details: read-out: Activity

Row | Structure (SMILES) | Activity [7] [%] | viability at 24 h, 80 µM [1] [%] | Activity [2] | viability at 50 µM [3] [%] | viability at 80 µM [4] [%] | viability at 50 µM [5] [%] | viability at 24 h, 50 µM [6] [%] | Activity [8] | viability at 80 µM [9] [%] | also measured
1 | OC[C@H]1O[C@@H](Oc2ccc(COC(=S)Nc3ccc(C(F)(F)F)cc3)cc2F)[C@H](O)[C@@H](O)[C@@H]1O | 36 | 90.8 | inactive | 88.6 | 100 | 96 | 88.9 | inactive | 86 | 
2 | COc1cccc2c1C(=O)c1c(O)c3c(c(O)c1C2=O)C[C@@](O)(C(=O)CO)C[C@@H]3O[C@H]1C[C@H](N)[C@H](O)[C@H](C)O1 [DOXORUBICIN] |  |  |  |  |  |  |  |  |  | viability at 2 µg/mL [10]: 100%
3 | Cc1ccc(NC(=S)OCc2ccc(O[C@@H]3O[C@H](CO)[C@H](O)[C@H](O)[C@H]3O)cc2)cc1 | 36 | 103 | inactive | 95.8 | 96.3 | 97.1 | 110 | inactive | 96.9 | 
4 | OC[C@H]1O[C@@H](Oc2ccc(COC(=S)Nc3ccc(C(F)(F)F)cc3)cc2F)[C@H](O)[C@@H](O)[C@H]1O | 36 | 87.9 | inactive | 88.9 | 96 | 94.6 | 97.3 | inactive | 86 | 
5 | OC[C@H]1O[C@@H](Oc2ccc(COC(=S)Nc3ccc(C(F)(F)F)cc3)cc2Br)[C@H](O)[C@@H](O)[C@@H]1O | 36 | 92.7 | inactive | 87.3 | 92.1 | 95.3 | 93.5 | inactive | 61.8 | 
6 | O=C(Nc1ccc(C(F)(F)F)cc1)OCc1ccc(O[C@H]2O[C@H](CO)[C@@H](O)[C@H](O)[C@@H]2O)c(Br)c1 |  |  |  |  |  |  |  |  | 51.6 | 
7 | OC[C@H]1O[C@H](Oc2ccc(COC(=S)Nc3ccc(C(F)(F)F)cc3)cc2F)[C@@H](O)[C@@H](O)[C@@H]1O | 36 | 83.9 | 24.4% | 45.7 | 72.6 | 78.7 | 86.3 | 40.6% | 49 | viability at 80 µM [11]: 76.3%; Activity [13]: 3.44%; Activity [15]: 1.03%; viability at 80 µM [16]: 56.8%; Activity [18]: 18.3%; Activity [20]: 23.9%; Activity [21]: 8.15%; Activity [22]: 8.14%

Now from value to molecule, other results behind:

Row | Activity [7] [%] | Structure (SMILES) | viability at 24 h, 80 µM [1] [%] | Activity [2] | viability at 50 µM [3] [%] | viability at 80 µM [4] [%] | viability at 50 µM [5] [%] | viability at 24 h, 50 µM [6] [%] | Activity [8] | viability at 80 µM [9] [%] | also measured
8 | 36 | OC[C@H]1O[C@@H](Oc2ccc(COC(=S)Nc3ccc(C(F)(F)F)cc3)cc2)[C@H](O)[C@@H](O)[C@H]1O | 86.2 | inactive | 78.1 | 82.1 | 92 | 89.8 | inactive | 68.9 | 
9 | 36 | OC[C@H]1O[C@@H](Oc2ccc(COC(=S)Nc3ccc(C(F)(F)F)cc3)cc2Br)[C@H](O)[C@@H](O)[C@H]1O | 89.2 | 20.9% | 82.2 | 88.2 | 97.5 | 86.8 |  | 86.8 | 
10 | 36 | OC[C@H]1O[C@H](Oc2ccc(COC(=S)Nc3ccc(C(F)(F)F)cc3)cc2)[C@@H](O)[C@@H](O)[C@@H]1O | 95.3 | inactive | 81.7 | 95 | 97.4 | 94.5 | inactive | 90.2 | 
11 | 36 | OC[C@H]1O[C@H](Oc2ccc(COC(=S)Nc3ccc(C(F)(F)F)cc3)cc2Br)[C@@H](O)[C@@H](O)[C@@H]1O | 62.3 | 51.8% | 53.2 | 70.8 | 102 | 83.6 | 45.2% | 37.6 | viability at 80 µM [11]: 50.7%; viability at 80 µM [12]: 64%; Activity [13]: 1.13%; viability at 80 µM [14]: 73%; Activity [15]: 10.8%; viability at 80 µM [16]: 50.6%; fold change (FC) [17]: 7; Activity [18]: 37.4%; viability at 100 µM [19]: 46%; Activity [20]: 23.3%; Activity [21]: 4.98%; Activity [22]: 21.1%; viability at 100 µM [23]: 67%
12 | 36 | OC[C@H]1O[C@@H](Oc2ccc(COC(=S)Nc3ccc(C(F)(F)F)cc3)cc2)[C@H](O)[C@@H](O)[C@@H]1O | 91.7 | inactive | 87.9 | 92 | 86.9 | 88.1 | inactive | 91.2 | 
13 | 36 | Cc1ccc(NC(=S)OCc2ccc(O[C@@H]3O[C@H](CO)[C@@H](O)[C@H](O)[C@H]3O)cc2)cc1 | 95 | inactive | 91 | 90.8 | 86.9 | 102 | inactive | 85.3 | 
